Holding throughout (type): biochemical
For assay [1], the target named is T1, recombinant alpha-glucosidase II (murine full-length glucosidase II, alpha and beta subunits, Glu 2) (Mus musculus, UniProt Q8BHN3).
T1 construct: made in house; host or cells: HEK-293T cells transduced with BacMam viruses (75% alpha, 25% beta); protein harvested from culture supernatant
The assay can be described thus: Alpha-glucosidase II assay (4-methylumbelliferyl-alpha-D-pyranoside substrate, fluorescence). The settings on record: Glucosidase 2; read-out: Glu2 IC50.

Assay [2] concerns the target recombinant human GAA (acid alpha-glucosidase) (Homo sapiens, UniProt P10253). Briefly: Acid alpha-glucosidase (GAA) assay (4-methylumbelliferyl-alpha-D-pyranoside substrate, fluorescence). The gist of the method: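 IC50 from 4-PL curve fit of percent inhibition, based on fluorescence (365/440 nm) of released methylumbelliferone relative to uninhibited enzyme. Compound dilutions and human GAA incubated 60 min, 37 °C, before 20 min substrate reaction at 37 °C, quenched at pH 10.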

Assay [3] has as its target T2, recombinant human GBA (beta-glucocerebrosidase) (Homo sapiens, UniProt P04062).
T2 sequence (P04062 40-536): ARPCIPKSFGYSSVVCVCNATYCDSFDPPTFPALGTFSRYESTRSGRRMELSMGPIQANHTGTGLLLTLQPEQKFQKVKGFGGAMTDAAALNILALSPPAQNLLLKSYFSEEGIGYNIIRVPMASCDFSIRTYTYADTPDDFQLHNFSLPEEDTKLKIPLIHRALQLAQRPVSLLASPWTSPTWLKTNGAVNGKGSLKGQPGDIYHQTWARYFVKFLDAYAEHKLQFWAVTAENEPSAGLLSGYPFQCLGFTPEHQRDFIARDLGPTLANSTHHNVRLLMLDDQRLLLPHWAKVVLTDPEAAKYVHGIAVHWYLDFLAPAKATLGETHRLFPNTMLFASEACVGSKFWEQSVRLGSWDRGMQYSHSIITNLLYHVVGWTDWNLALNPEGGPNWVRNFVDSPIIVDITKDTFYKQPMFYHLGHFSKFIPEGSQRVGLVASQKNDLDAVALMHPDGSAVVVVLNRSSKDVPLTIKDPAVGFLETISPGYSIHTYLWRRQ
Briefly: Beta-glucocerebrosidase (GBA, glucosylceramidase) assay (4-methylumbelliferyl-beta-D-pyranoside substrate, fluorescence). The gist of the method: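 IC50 by four-parameter fit of percent inhibition, with product fluorescence (365/440 nm) read after a glycine/NaOH pH 10 stop. Compound and commercial recombinant human enzyme were incubated 60 min at 37 °C before a further 60 min at 37 °C with 4-methylumbelliferyl-beta-D-pyranoside substrate.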

Assay [4] addresses rat maltase (partially purified alpha-glucosidase from intestinal rat powder). The assay can be described thus: Intestinal alpha-glucosidase assay, maltose substrate (Glucose GO Kit). The gist of the method: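 Rat intestinal enzyme prep + test cpd dilutions, 60 min 37 °C; add maltose (maltase) or sucrose (sucrase), 30 min 37 °C; stop 90 °C 5 min. Glucose readout (glucose oxidase kit). IC50 from 4-PL fit of % inhibition vs conc.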

Assay [5] deals with rat sucrase (partially purified alpha-glucosidase from intestinal rat powder) (Rattus norvegicus, UniProt P23739). The assay can be described thus: Intestinal alpha-glucosidase assay, sucrose substrate (Glucose GO Kit). The gist of the method:
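Glucose release is the read-out: compounds at multiple dilutions are first held with partially purified rat intestinal alpha-glucosidase for 60 min at 37 °C, after which maltose or sucrose substrate reacts for 30 min at 37 °C before a 5 min 90 °C stop. IC50 comes from a four-parameter logistic fit.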

pIC50: −log10 of the molar value. Bounds are passed on as bounds.

The term pIC50 denotes the negative decadic logarithm of the IC50, by convention in mol/L.

T1 sequence (O08795 15-521): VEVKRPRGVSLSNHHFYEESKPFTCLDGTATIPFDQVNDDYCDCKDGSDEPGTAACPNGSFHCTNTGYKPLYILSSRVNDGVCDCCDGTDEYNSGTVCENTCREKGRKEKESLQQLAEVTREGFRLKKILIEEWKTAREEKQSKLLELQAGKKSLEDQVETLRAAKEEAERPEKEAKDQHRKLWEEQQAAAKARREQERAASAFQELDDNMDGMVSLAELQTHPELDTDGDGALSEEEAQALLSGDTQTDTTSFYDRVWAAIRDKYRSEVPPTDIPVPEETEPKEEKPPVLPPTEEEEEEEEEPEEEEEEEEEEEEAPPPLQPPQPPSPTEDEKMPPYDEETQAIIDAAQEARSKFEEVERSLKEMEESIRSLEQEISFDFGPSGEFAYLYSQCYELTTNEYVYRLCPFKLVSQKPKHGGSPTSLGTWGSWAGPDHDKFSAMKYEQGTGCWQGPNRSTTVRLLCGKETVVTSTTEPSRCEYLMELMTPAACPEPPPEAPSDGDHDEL
T1 sequence (Q8BHN3 33-944): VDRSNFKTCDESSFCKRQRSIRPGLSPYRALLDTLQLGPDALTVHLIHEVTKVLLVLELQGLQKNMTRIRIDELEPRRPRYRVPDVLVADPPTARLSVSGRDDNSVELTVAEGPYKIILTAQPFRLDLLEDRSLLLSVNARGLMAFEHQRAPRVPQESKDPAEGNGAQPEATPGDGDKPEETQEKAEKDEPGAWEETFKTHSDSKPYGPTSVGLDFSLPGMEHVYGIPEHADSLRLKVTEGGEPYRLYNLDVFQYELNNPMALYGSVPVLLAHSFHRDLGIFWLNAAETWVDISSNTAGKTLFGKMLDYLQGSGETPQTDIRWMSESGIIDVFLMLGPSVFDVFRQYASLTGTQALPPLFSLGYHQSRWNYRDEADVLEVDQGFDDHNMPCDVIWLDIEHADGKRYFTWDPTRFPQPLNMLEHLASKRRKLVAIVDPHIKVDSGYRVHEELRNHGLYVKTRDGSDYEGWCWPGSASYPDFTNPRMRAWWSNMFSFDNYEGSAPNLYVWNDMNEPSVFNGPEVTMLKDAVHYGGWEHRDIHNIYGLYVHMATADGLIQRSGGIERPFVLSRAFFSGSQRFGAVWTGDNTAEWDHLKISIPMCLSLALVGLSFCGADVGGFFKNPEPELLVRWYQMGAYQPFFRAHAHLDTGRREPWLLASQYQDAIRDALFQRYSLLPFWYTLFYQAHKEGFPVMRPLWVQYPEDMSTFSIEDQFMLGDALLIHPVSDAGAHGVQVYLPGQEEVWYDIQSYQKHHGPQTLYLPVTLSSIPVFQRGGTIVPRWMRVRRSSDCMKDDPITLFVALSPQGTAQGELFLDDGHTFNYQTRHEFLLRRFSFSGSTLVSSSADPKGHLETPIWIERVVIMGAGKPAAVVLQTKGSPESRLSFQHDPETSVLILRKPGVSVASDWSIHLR
Chain of rat sucrase (partially purified alpha-glucosidase from intestinal rat powder) (P23739 whole entry): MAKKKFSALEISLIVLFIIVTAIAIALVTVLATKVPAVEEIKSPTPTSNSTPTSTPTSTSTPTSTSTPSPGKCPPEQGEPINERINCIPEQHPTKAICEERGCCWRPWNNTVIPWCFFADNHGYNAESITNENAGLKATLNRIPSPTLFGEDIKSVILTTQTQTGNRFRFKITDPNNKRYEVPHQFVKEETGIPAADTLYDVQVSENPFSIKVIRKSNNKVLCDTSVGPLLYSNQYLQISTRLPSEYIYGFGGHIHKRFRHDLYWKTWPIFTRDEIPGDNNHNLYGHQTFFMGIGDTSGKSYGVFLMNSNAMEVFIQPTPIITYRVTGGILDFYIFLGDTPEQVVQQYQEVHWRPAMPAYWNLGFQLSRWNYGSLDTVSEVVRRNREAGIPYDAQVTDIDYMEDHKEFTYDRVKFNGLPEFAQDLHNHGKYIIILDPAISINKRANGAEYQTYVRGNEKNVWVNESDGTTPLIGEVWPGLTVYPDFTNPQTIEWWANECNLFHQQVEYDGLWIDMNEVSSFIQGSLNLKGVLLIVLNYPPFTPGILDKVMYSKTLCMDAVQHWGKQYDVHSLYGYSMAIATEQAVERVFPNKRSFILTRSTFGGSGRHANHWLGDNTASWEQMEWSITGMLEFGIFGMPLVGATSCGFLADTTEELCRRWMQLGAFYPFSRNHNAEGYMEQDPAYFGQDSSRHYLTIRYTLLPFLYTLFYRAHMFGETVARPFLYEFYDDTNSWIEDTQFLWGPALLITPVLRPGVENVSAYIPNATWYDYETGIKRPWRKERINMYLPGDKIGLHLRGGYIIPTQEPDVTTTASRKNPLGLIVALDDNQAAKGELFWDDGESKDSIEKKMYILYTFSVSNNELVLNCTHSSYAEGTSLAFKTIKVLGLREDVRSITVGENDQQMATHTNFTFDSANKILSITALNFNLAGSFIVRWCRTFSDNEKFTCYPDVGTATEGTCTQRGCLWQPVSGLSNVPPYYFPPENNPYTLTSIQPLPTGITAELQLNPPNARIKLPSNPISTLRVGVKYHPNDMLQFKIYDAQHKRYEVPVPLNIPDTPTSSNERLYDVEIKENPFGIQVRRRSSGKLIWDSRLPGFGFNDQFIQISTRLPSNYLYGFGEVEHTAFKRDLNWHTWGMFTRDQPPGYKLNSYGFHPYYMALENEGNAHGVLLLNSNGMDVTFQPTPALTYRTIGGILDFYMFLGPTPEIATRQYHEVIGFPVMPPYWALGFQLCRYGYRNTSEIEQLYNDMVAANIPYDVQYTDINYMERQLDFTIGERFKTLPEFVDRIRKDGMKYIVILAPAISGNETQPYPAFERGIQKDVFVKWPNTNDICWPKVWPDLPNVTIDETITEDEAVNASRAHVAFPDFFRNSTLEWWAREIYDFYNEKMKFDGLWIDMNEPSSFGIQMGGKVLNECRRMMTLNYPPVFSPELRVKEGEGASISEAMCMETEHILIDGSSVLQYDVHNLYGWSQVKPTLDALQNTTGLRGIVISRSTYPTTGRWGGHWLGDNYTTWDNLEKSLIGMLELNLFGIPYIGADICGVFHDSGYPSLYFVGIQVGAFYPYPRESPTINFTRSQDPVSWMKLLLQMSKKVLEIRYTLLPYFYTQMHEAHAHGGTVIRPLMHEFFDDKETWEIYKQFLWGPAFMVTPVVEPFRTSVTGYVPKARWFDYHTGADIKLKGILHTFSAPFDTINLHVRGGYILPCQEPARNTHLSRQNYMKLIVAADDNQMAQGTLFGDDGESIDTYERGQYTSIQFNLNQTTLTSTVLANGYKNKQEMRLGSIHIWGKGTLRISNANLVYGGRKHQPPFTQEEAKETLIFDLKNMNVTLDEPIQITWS

Consider `[N-]=[N+]=Nc1ccc(NCCc2cc(CCN3C[C@H](O)[C@@H](O)[C@H](O)[C@H]3CO)cc(C3CCCCC3)c2)c([N+](=O)[O-])c1` [Compound 1115, (2R,3R,4R,5S)-1-[2-(3-{2-[(4-azido-2-nitrophenyl)amino]ethyl}-5-cyclohexylphenyl)ethyl]-2-(hydroxymethyl)piperidine-3,4,5-triol], for which the pIC50 in assay [1] is 5.97; in assay [2] it was 5.26; in assay [3], 6.39; in assay [4] it was 5.17; in assay [5], 4.98.

As to `COC(=O)c1cc(Cl)cc(NCCc2ccc(CCN3C[C@H](O)[C@@H](O)[C@H](O)[C@H]3CO)cc2)c1` [Compound 1116, methyl 3-chloro-5-{[2-(4-{2-[(2R,3R,4R,5S)-3,4,5-trihydroxy-2-(hydroxymethyl)piperidin-1-yl]ethyl}phenyl)ethyl]amino}benzoate], the pIC50 in assay [1] is > 9.00; in assay [2], 6.37; in assay [3], 6.04; in assay [4] it was 6.79; in assay [5] it was 5.91.

Turning to `O=C(O)c1cc(Cl)cc(NCCc2ccc(CCN3C[C@H](O)[C@@H](O)[C@H](O)[C@H]3CO)cc2)c1` [Compound 1117, 3-chloro-5-{[2-(4-{2-[(2R,3R,4R,5S)-3,4,5-trihydroxy-2-(hydroxymethyl)piperidin-1-yl]ethyl}phenyl)ethyl]amino}benzoic acid], the pIC50 is 6.86 in assay [1]; 6.30 in assay [2]; 4.74 in assay [3]; 6.66 in assay [4]; 6.32 in assay [5].

`O=C(O)c1cc(NCCCCCCN2C[C@H](O)[C@@H](O)[C@H](O)[C@H]2CO)cc(-c2ncccn2)c1` [Compound 1118, 3-(pyrimidin-2-yl)-5-({6-[(2R,3R,4R,5S)-3,4,5-trihydroxy-2-(hydroxymethyl)piperidin-1-yl]hexyl}amino) benzoic acid]: the pIC50 is 8.30 in assay [1]; 7.57 in assay [2]; 5.61 in assay [3]; 8.40 in assay [4]; 7.24 in assay [5].

Consider `COc1cc(NCCc2ccc(CCN3C[C@H](O)[C@@H](O)[C@H](O)[C@H]3CO)cc2)cc(-c2noc(C3CCC3)n2)c1` [Compound 1120, (2R,3R,4R,5S)-1-{2-[4-(2-{[3-(5-cyclobutyl-1,2,4-oxadiazol-3-yl)-5-methoxyphenyl]amino}ethyl)phenyl]ethyl}-2-(hydroxymethyl)piperidine-3,4,5-triol], for which the pIC50 is 9.00 in assay [1]; 6.24 in assay [2]; 7.89 in assay [3]; 6.73 in assay [4]; 6.30 in assay [5].

As for `OC[C@@H]1[C@@H](O)[C@H](O)[C@@H](O)CN1CCc1ccc(CCNc2cc(Cl)cc(-c3noc(C4CCC4)n3)c2)cc1` [Compound 1122, (2R,3R,4R,5S)-1-{2-[4-(2-{[3-chloro-5-(5-cyclobutyl-1,2,4-oxadiazol-3-yl)phenyl]amino}ethyl)phenyl]ethyl}-2-(hydroxymethyl)piperidine-3,4,5-triol], the pIC50 was 6.53 in assay [1]; 6.25 in assay [2]; 8.22 in assay [3]; 6.14 in assay [4]; 5.78 in assay [5].

For the origin of these results see patent US20250197372A1 (priority 2020, published 2025).
